In patent publication US7763615B2, “Ecteinascidin analogs for use as antitumour agents” (priority 2001, dated 2010):
Read-outs that look alike come from different tables or passages of the source.

Legend:
A549 = assay: cells; format: cell-based; conditions: for GI50: read-out: GI50; for IC (TGI): read-out: TGI
From the text: (§1) The finality of these assays is to interrupt the growth of a “in vitro” tumor cell culture by means of a continued exhibition of the cells to the sample to be testing.
(§2) A colorimetric type of assay, using sulphorhodamine B (SRB) reaction has been adapted for a quantitative measurement of cell growth and viability [following the technique described by Philip Skehan, et al. (1990), New colorimetric cytotoxicity assay for anticancer drug screening, J. Natl. Cancer Inst., 82:1107-1112]
(§3) This form of the assay employs 96 well cell culture microplates of 9 mm diameter (Faircloth, 1988; Mosmann, 1983). Most of the cell lines are obtained from American Type Culture Collection (ATCC) derived from different human cancer types.
(§4) Cells are maintained in RPMI 1640 10% FBS, supplemented with 0.1 g/l penicillin and 0.1 g/l streptomycin sulphate and then incubated at 37° C., 5% CO2 and 98% humidity. For the experiments, cells were harvested from subconfluent cultures using trypsin and resuspended in fresh medium before plating.
(§5) Cells are seeded in 96 well microtiter plates, at 5×10^3 cells per well in aliquots of 195 μl medium, and they are allowed to attach to the plate surface by growing in drug free medium for 18 hours. Afterward, samples are added in aliquots of 5 μl in a ranging from 10 to 10^−8 μg/ml, dissolved in DMSO/EtOH/PBS (0.5:0.5:99). After 48 hours exposure, the antitumor effect are measured by the SRB methodology: cells are fixed by adding 50 μl of cold 50% (wt/vol) trichloroacetic acid (TCA) and incubating for 60 minutes at 4° C. Plates are washed with deionized water and dried. One hundred μl of SRB solution (0.4% wt/vol in 1% acetic acid) is added to each microtiter well and incubated for 10 minutes at room temperature. Unbound SRB is removed by washing with 1% acetic acid. Plates are air dried and bound stain is solubilized with Tris buffer. Optical densities are read on a automated spectrophotometric plate reader at a single wavelength of 490 nm.
(§6) The values for mean+/− SD of data from triplicate wells are calculated. Some parameters for cellular responses can be calculated: GI=growth inhibition, TGI=total growth inhibition (cytostatic effect) and LC=cell killing (cytotoxic effect).

DU145 = assay: cells; format: cell-based; conditions: for CC50: read-out: LC50
From the text: as §1, §2, §3, §4, §5, §6

HT29 = assay: cells; format: cell-based
From the text: as §1, §2, §3, §4, §5, §6

IGROV-ET = assay: cells; format: cell-based; conditions: IGROV-ET, 48 hours exposure, SRB
From the text: as §1, §2, §3, §4, §5, §6

IGROV = assay: cells; format: cell-based
From the text: as §1, §2, §3, §4, §5, §6

K562 = assay: cells; format: cell-based
From the text: as §1, §2, §3, §4, §5, §6

LNCAP = assay: cells; format: cell-based; conditions: LNCAP, 48 hours exposure, SRB
From the text: as §1, §2, §3, §4, §5, §6

LOVO-DOX = assay: cells; format: cell-based; conditions: LOVO-DOX, 48 hours exposure, SRB
From the text: as §1, §2, §3, §4, §5, §6

LOVO = assay: cells; format: cell-based; conditions: LOVO, 48 hours exposure, SRB
From the text: as §1, §2, §3, §4, §5, §6

MEL-28 = assay: cells; format: cell-based; conditions: Homo sapiens, SK-MEL-28, 48 h; for GI50 / IC (TGI): MEL-28, 48 hours exposure, SRB
From the text: as §1, §2, §3, §4, §5, §6

PANC-1 = assay: cells; format: cell-based; conditions: PANC-1, 48 hours exposure, SRB
From the text: as §1, §2, §3, §4, §5, §6

SK-BR3 = assay: cells; format: cell-based; conditions: SK-BR3, 48 hours exposure, SRB
From the text: as §1, §2, §3, §4, §5, §6

H-MEC-1 = assay: Inhibition of cells growth by colorimetric assay (SRB), H-MEC-1; format: cell-based; conditions: H-MEC-1, 48 hours exposure, SRB
From the text: as §1, §2, §3, §4, §5, §6

SK-OV3 = assay: Inhibition of cells growth by colorimetric assay (SRB), SK-OV3; format: cell-based; conditions: SK-OV3, 48 hours exposure, SRB
From the text: as §1, §2, §3, §4, §5, §6

[1] = system: AML-12, normal mouse liver cells; conditions: 24 h
[2] = system: NRK-52E, normal rat kidney cells; conditions: 24 h
[3] = system: L8, normal rat skeletal muscle cells; conditions: 24 h
[4] = system: FDC-P1, normal mouse myelogeous stem cells; conditions: 24 h
Procedure: In order to assess the cytotoxicity of the drugs to normal cells, we used 96 well plates plated at a density of 5000 cells per well (except for the FDC-P1 which were plated at 12,000 cells per well) with normal cell lines (ATCC, Table 1) maintained as per the directions of the ATCC: AML-12, normal mouse liver cells; NRK-52E, normal rat kidney cells; L8, normal rat skeletal muscle cells; FDC-P1, normal mouse myelogeous stem cells; and H9c2 (2-1), normal rat cardiac muscle cells. The cells in each plate were permitted to settle overnight before adding the test drug.
To each well (100 μl medium) 10 μl of drug in media was added at varying concentrations (1×10-10-0.01 mg/ml final concentration) and further incubated overnight at 37° C. with 5% CO2. After 24 h the following assays were performed. All experiments were repeated at least 3 times and were assayed in duplicate.
MTS assay (CellTiter 96 aqueous) was performed according to the manufacturer's (Promega) directions (for all cell types). Cell viability (mitochondrial activity) is determined via enzymatic conversion of the formazan substrate.

A498 = assay: cells; format: cell-based; conditions: Homo sapiens
From the text: as §1, §2, §3, §4, §5, §6

MB231 = assay: cells; format: cell-based; conditions: Homo sapiens
From the text: as §1, §2, §3, §4, §5, §6

MCF = assay: cells; format: cell-based; conditions: Homo sapiens
From the text: as §1, §2, §3, §4, §5, §6

SW-620 = assay: cells; format: cell-based; conditions: Homo sapiens
From the text: as §1, §2, §3, §4, §5, §6

[5] = Homo sapiens, HT-29, 48 h, read-out: LC50, HT29, 48 hours exposure, SRB
[6] = Homo sapiens, A549, 48 h, A549, 48 hours exposure, SRB
[7] = Homo sapiens, A549, 48 h, A549, 48 hours exposure, SRB, read-out: LC50 (the source's name)
[8] = Homo sapiens, HT-29, 48 h, HT29, 48 hours exposure, SRB
[9] = Homo sapiens, HT-29, 48 h, HT29, 48 hours exposure, SRB, read-out: LC50 (the source's name)
[10] = Homo sapiens, HMEC-1, read-out: LC50 (the source's name)
[11] = Homo sapiens, DU-145, 48 h, DU145, 48 hours exposure, SRB

COc1c(C)cc2c(c1O)[C@@H]1C3[C@@H]4SC[C@]5(C(=O)COC[C@@H](c6c7c(c(C)c(OC(C)=O)c64)OCO7)N3[C@@H](O)[C@H](C2)N1C)c1[nH]c2ccccc2c1CCN5C (stereo partly shown) [Compound 39]
TGI (A549; A549, 48 hours exposure, SRB): 8.74E−08 Molar | GI50 (A549; A549, 48 hours exposure, SRB): 46.7 nM | CC50 (A549; read-out: LC50, A549, 48 hours exposure, SRB): 2320 nM | GI50 (DU145; DU145, 48 hours exposure, SRB): 55.9 nM | TGI (DU145; DU145, 48 hours exposure, SRB): 2.03E−06 Molar | CC50 (DU145; DU145, 48 hours exposure, SRB): 13000 nM | GI50 (HT29; HT29, 48 hours exposure, SRB): 48.5 nM | TGI (HT29; HT29, 48 hours exposure, SRB): 1.73E−05 Molar | CC50 (HT29; [5]): 13000 nM | GI50 (IGROV-ET): 82.5 nM | TGI (IGROV-ET): 4.04E−06 Molar | CC50 (IGROV-ET; read-out: LC50): 13000 nM | GI50 (IGROV; 48 hours exposure, SRB): 43 nM | TGI (IGROV; 48 hours exposure, SRB): 8.15E−08 Molar | CC50 (IGROV; read-out: LC50, 48 hours exposure, SRB): 2320 nM | CC50 (K562; Homo sapiens, K562, 48 h, read-out: LC50, K562, 48 hours exposure, SRB): 79.2 nM | GI50 (K562; K562, 48 hours exposure, SRB): 25.1 nM | TGI (K562; K562, 48 hours exposure, SRB): 4.46E−08 Molar | GI50 (LNCAP): 20.5 nM | TGI (LNCAP): 4.41E−08 Molar | CC50 (LNCAP; read-out: LC50): 94.7 nM | GI50 (LOVO-DOX): 234 nM | TGI (LOVO-DOX): 9.94E−07 Molar | CC50 (LOVO-DOX; read-out: LC50): 13000 nM | GI50 (LOVO): 32.1 nM | TGI (LOVO): 6.22E−08 Molar | CC50 (LOVO; read-out: LC50): 120 nM | GI50 (MEL-28): 34.7 nM | IC (TGI) (MEL-28): 69.1 nM | CC50 (MEL-28; read-out: LC50, MEL-28, 48 hours exposure, SRB): 181 nM | GI50 (PANC-1): 60.1 nM | TGI (PANC-1): 9.22E−07 Molar | CC50 (PANC-1; read-out: LC50): 13000 nM | GI50 (SK-BR3): 49.9 nM | TGI (SK-BR3): 1.10E−07 Molar | CC50 (SK-BR3; read-out: LC50): 944 nM | GI50 (H-MEC-1): 58.1 nM | TGI (H-MEC-1): 1.46E−06 Molar | CC50 (H-MEC-1; read-out: LC50): 13000 nM | GI50 (SK-OV3): 62.4 nM | TGI (SK-OV3): 3.19E−07 Molar | CC50 (SK-OV3; read-out: LC50): 13000 nM | Liver [1]: 1.14E−06 | Kidney [2]: 9.88E−05 | Skeletal [3]: 4.58E−07 | Myelo [4]: 4.10E−07

CCCCCCCC(=O)Oc1c(C)c2c(c3c1[C@H]1SC[C@]4(NCCc5c4[nH]c4ccccc54)C(=O)COC[C@@H]3N3C1[C@H]1c4c(cc(C)c(OC)c4O)C[C@@H]([C@@H]3C#N)N1C)OCO2 (stereo partly shown) [Compound 61]
GI50 (A549; [6]): 11800 nM | CC50 (A549; [7]): 11800 nM | IC (TGI) (A549; [6]): 11800 nM | GI50 (HT29; [8]): 11800 nM | IC (TGI) (HT29; [8]): 11800 nM | CC50 (HT29; [9]): 11800 nM | GI50 (H-MEC-1; Homo sapiens, HMEC-1, 48 h): 394 nM | IC (TGI) (H-MEC-1; Homo sapiens, HMEC-1, 48 h): 805 nM | CC50 (H-MEC-1; [10]): 3400 nM

COc1c(C)cc2c(c1O)[C@@H]1C3[C@@H]4SC[C@]5(NCCc6c5[nH]c5ccccc65)C(=O)COC[C@@H](c5c6c(c(C)c(OC(=O)C(F)(F)C(F)(F)C(F)(F)F)c54)OCO6)N3[C@@H](O)[C@H](C2)N1C (stereo partly shown) [Compound 62]
CC50 (A498; A498, 48 h, read-out: LC50): 11 nM | GI50 (A498; A498, 48 hours exposure, SRB): 3.3 nM | IC (TGI) (A498; A498, 48 hours exposure, SRB): 4.4 nM | GI50 (A549; [6]): 8.8 nM | IC (TGI) (A549; [6]): 33 nM | CC50 (A549; Homo sapiens, A549, 48 h, read-out: LC50, A549, 48 hours exposure, SRB): 77 nM | GI50 (DU145; [11]): 2.2 nM | IC (TGI) (DU145; [11]): 4.4 nM | CC50 (DU145; Homo sapiens, DU-145, 48 h): 9.9 nM | GI50 (HT29; [8]): 11 nM | IC (TGI) (HT29; [8]): 66 nM | CC50 (HT29; [5]): 99 nM | CC50 (MB231; 48 h, read-out: LC50): 33 nM | GI50 (MB231; MB231, 48 hours exposure, SRB): 1.1 nM | IC (TGI) (MB231; MB231, 48 hours exposure, SRB, read-out: TGI): 5.5 nM | CC50 (MCF; 48 h, read-out: LC50): 110 nM | GI50 (MCF; MCF, 48 hours exposure, SRB): 2.2 nM | IC (TGI) (MCF; MCF, 48 hours exposure, SRB, read-out: TGI): 9.9 nM | GI50 (MEL-28): 3.3 nM | IC (TGI) (MEL-28): 1.1 nM | CC50 (MEL-28; read-out: LC50): 33 nM | CC50 (SW-620; SW-620, 48 h, read-out: LC50): 110 nM | IC (TGI) (SW-620; SW-620, 48 hours exposure, SRB): 55 nM | GI50 (SW-620; SW-620, 48 hours exposure, SRB, read-out: GI50): 22 nM

CCCC(=O)Oc1c(C)c2c(c3c1[C@H]1SC[C@]4(NCCc5c4[nH]c4ccccc54)C(=O)COC[C@@H]3N3C1[C@H]1c4c(cc(C)c(OC)c4O)C[C@@H]([C@@H]3O)N1C)OCO2 (stereo partly shown) [Compound 63]
GI50 (A549; [6]): 3.12 nM | CC50 (A549; [7]): 3030 nM | IC (TGI) (A549; [6]): 9.53 nM | GI50 (HT29; [8]): 3.88 nM | IC (TGI) (HT29; [8]): 12.8 nM | CC50 (HT29; [9]): 12800 nM | GI50 (H-MEC-1; Homo sapiens, HMEC-1, 48 h): 2.72 nM | IC (TGI) (H-MEC-1; Homo sapiens, HMEC-1, 48 h): 12.8 nM | CC50 (H-MEC-1; [10]): 12800 nM
